Measured values as given in US6806229B1, “Herbicidally active pyridine sulfonyl urea derivatives” (LG Life Sciences, priority 2003, dated 2004).
Like-named read-outs stand apart in the source and are kept apart here.

Legend:
[1] = test system: Oryza sativa; experiment: Phytotoxicity to rice (direct-seeded and transplanted) in paddy condition, greenhouse pot test; format: in vivo; conditions: visual rating after two weeks; for Phytotoxicity, Oryza sativa, Seed: direct-seeded rice, treated 5 days after sowing; for Phytotoxicity, Oryza sativa, Transplanted: transplanted rice seedlings, treated 5 days after transplanting
Source text: (§1) Pots having a surface area of 150 cm^2 were filled with a small amount of fertilizer and sterilized paddy field soil in a muddy state with a depth of 5 cm. Five (5) seeds of pre-germinated rice were directly sown on the soil surface and three (3) rice seedlings (2˜3 leaves) prepared in advance were transplanted in a depth of 2 cm in each pot. In another pot, seeds of barnyardgrass were sown and incorporated into the surface layer of soil. After sowing and transplanting of rice plant and sowing of barnyardgrass, the pots were flooded with water 3 cm deep and kept in a greenhouse. The rice plant was treated with the chemicals 5 days after sowing or transplanting, and barnyardgrass was treated with the chemicals at the pre-emergence (5 days after from sowing) and post-emergence stage (at the three-leaf stage, usually after 15 days from sowing).
(§2) Suitable herbicidal compositions were prepared by mixing and dissolving 1 part by weight of the active compound with 5 parts by weight of acetone and 1 part by weight of alkylaryl polyglycolether as an emulsifier and then diluting with water to the predetermined concentration. Application was made by dropping the herbicide solutions onto the water surface of the pots.

[2] = test system: Echinochloa crus-galli; experiment: Herbicidal activity to barnyardgrass in paddy condition, pre- and post-emergence, greenhouse pot test; format: in vivo; conditions: for pest or weed control at 5 g/ha / pest or weed control at 10 g/ha / pest or weed control at 20 g/ha / pest or weed control at 30 g/ha: Echinochloa crus-galli, 336 h, visual rating after two weeks
Source text: as §1, §2

[3] = 80 g/ha, 0 = none, 100 = complete death
[4] = post-emergence, three-leaf stage, read-out: Herbicidal activity, Echinochloa crus-galli, Post-emergence (3-Leaf stage)
[5] = pre-emergence (5 days after sowing), read-out: Herbicidal activity, Echinochloa crus-galli, Pre-emergence
[6] = 20 g/ha, post-emergence, three-leaf stage, read-out: Herbicidal activity, Echinochloa crus-galli, Post-emergence (3-Leaf stage)
[7] = 20 g/ha, pre-emergence (5 days after sowing), read-out: Herbicidal activity, Echinochloa crus-galli, Pre-emergence
[8] = pre-emergence (5 days after sowing), 0 = no activity, 100 = complete death, read-out: Herbicidal activity, Echinochloa crus-galli, Pre-emergence

Structure (SMILES) | Phytotoxicity, Oryza sativa, Seed ([1]; 10 g/ha) | Phytotoxicity, Oryza sativa, Transplanted ([1]; 10 g/ha) | Phytotoxicity, Oryza sativa, Seed ([1]; 20 g/ha) | Phytotoxicity, Oryza sativa, Transplanted ([1]; 20 g/ha) | Phytotoxicity, Oryza sativa, Seed ([1]; 40 g/ha) | Phytotoxicity, Oryza sativa, Transplanted ([1]; 40 g/ha) | Phytotoxicity, Oryza sativa, Seed [1, 3] | Phytotoxicity, Oryza sativa, Transplanted ([1]; 80 g/ha) | pest or weed control at 5 g/ha [2, 4] | pest or weed control at 5 g/ha [2, 5] | pest or weed control at 10 g/ha [2, 4] | pest or weed control at 10 g/ha [2, 5] | pest or weed control at 20 g/ha [2, 6] | pest or weed control at 20 g/ha [2, 7] | pest or weed control at 30 g/ha [2, 4] | pest or weed control at 30 g/ha [2, 8] | herbicidal activity to barnyardgrass ([2]; 20 g/ha, pre- or post-emergence treatments)
COc1cc(OC)nc(NC(=O)NS(=O)(=O)c2cccnc2[C@@H](OC(=O)CO)[C@H](C)F)n1 [Com. 1] | 0% | 0% | 10% | 10% | 30% | 10% | 30% | 20% | 60% | 50% | 80% | 80% | 90% | 90% | 100% | 90% | –
COc1cc(OC)nc(NC(=O)NS(=O)(=O)c2cccnc2[C@@H](OC(=O)CCO)[C@H](C)F)n1 [Com. 3] | 0% | 5% | 10% | 10% | 30% | 20% | 30% | 20% | 60% | 60% | 80% | 90% | 90% | 95% | 100% | 100% | –
COCC(=O)O[C@H](c1nccc(Cl)c1S(=O)(=O)NC(=O)Nc1nc(OC)cc(OC)n1)[C@H](C)F [Com. 5] | 0% | 0% | 10% | 0% | 20% | 0% | 30% | 20% | 60% | 50% | 70% | 80% | 90% | 90% | 100% | 100% | –
COCC(=O)O[C@H](c1nccc(Br)c1S(=O)(=O)NC(=O)Nc1nc(OC)cc(OC)n1)[C@H](C)F [Com. 6] | 0% | 0% | 0% | 0% | 10% | 0% | 20% | 20% | 50% | 60% | 70% | 80% | 90% | 100% | 100% | 100% | –
COCC(=O)O[C@H](c1nccc(C)c1S(=O)(=O)NC(=O)Nc1nc(OC)cc(OC)n1)[C@H](C)F [Com. 7] | 0% | 0% | 0% | 0% | 20% | 10% | 30% | 20% | 50% | 60% | 80% | 80% | 95% | 90% | 100% | 100% | –
COc1cc(OC)nc(NC(=O)NS(=O)(=O)c2ccccc2[C@@H](O)[C@H](C)F)n1 [Standard Compound A, reference compound] | 40% | 20% | 40% | 30% | 50% | 40% | 80% | 70% | 60% | 60% | 90% | 100% | 95% | 100% | 100% | 100% | –
COc1cc(OC)nc(NC(=O)NS(=O)(=O)c2ccccc2[C@@H](OC(C)=O)[C@H](C)F)n1 [Standard Compound B, reference compound] | 30% | 20% | 40% | 20% | 50% | 40% | 70% | 60% | 50% | 50% | 90% | 100% | 90% | 100% | 100% | 100% | –
COc1cc(OC)nc(NC(=O)NS(=O)(=O)c2cccnc2[C@@H](O)[C@H](C)F)n1 [Standard Compound C, reference compound] | 10% | 10% | 20% | 20% | 30% | 30% | 70% | 50% | 60% | 40% | 90% | 100% | 100% | 100% | 100% | 100% | –
COc1cc(OC)nc(NC(=O)NS(=O)(=O)c2cccnc2[C@@H](OC(C)=O)[C@H](C)F)n1 [Standard Compound D, reference compound] | 10% | 0% | 20% | 10% | 30% | 20% | 60% | 50% | 50% | 30% | 90% | 100% | 100% | 100% | 100% | 100% | –
CCOC(=O)c1cnn(C)c1S(=O)(=O)NC(=O)Nc1nc(OC)cc(OC)n1 [Standard Compound E, Pyrazosulfuron-ethyl, reference compound] | 0% | 0% | 10% | 0% | 20% | 0% | 30% | 10% | 0% | 0% | 0% | 10% | 0% | 20% | 20% | 30% | 10%
